Results: US20080138326A1, “Method for cancer treatment, carcinogenesis suppression or mitigation of adverse reactions of anticancer agents” (Kaneka Corporation, priority 2006, published 2008)
Marks after values point to notes of the source that are not given here.

How the values were obtained:
[1] = tested on: rats; details: 1.2 g/kg/day for 52 consecutive weeks; cited from earlier work
[2] = tested on: Human breast cancer-derived cells (MCF-7); test: Suppressive effect on cell activation in cancer-derived cells (intracellular ATP content); format: cell-based; details: 24 hours; for intracellular ATP content compared with control group: 80 μg/ml, Tween 80 control = 100%, P<0.0011
Description: The reduced coenzyme Q10 obtained in Production Example 1 and the oxidized coenzyme Q10 used as a raw material in Production Example 1 were respectively dissolved in undiluted Tween 80 (MP Biomedicals) to give test samples.
Human breast cancer-derived cells (MCF-7, supplied by ATCC) were cultured in a Dulbecco's modified MEM medium (GIBCO) supplemented with 200 U of penicillin, […] streptomycin, and 10% fetal bovine serum at 37° C. in the presence of 5% CO2. After becoming confluent, the cells were sown to a 96-well microplate (IWAKI) at 2.0×10^4 cells per well. Twenty-four hours after the sowing, the medium was replaced with a Dulbecco's modified MEM medium containing 0.5% fetal bovine serum, and the above test samples were added to said medium such that the concentrations of Tween 80 were to be […], 0.025 and 0.05% (the concentrations of the reduced coenzyme Q10 or oxidized coenzyme Q10 in the medium were 20, 40 and 80 μg/ml). Tween 80 alone was added to the Dulbecco's modified MEM medium containing 0.5% fetal bovine serum such that the concentrations were to be the same, and the resulting solution was used as a control. Twenty-four hours later, the medium was removed, and the microplate was washed with PBS (GIBCO), after which intracellular ATP contents were determined using an ATP assay kit (Perkin-Elmer) and compared. The results are shown in FIG. 2, where the determined intracellular ATP amount for the control sample is given a value of 100% and the determined intracellular ATP amounts for the test samples were compared to this value.

[3] = tested on: Normal human skin fibroblasts (NHDF); test: Promotive effect on cell activation in skin fibroblasts (intracellular ATP content); format: cell-based; details: 48 hours; for ATP level: HCO-60 solvent; for intracellular ATP levels compared with solvent control: 0.12 and 0.98 μg/ml
Description: The reduced coenzyme Q10 obtained in Production Example 1 and the oxidized coenzyme Q10 used as a raw material in Production Example 1 were respectively dissolved in undiluted HCO-60 (polyoxyethylene hydrogenated castor oil, Nihon Surfactant Kogyo K.K.) to give test samples.
Normal human skin fibroblasts (NHDF, Kurabo Industries) were cultured in a Medium 106S basal medium (Kurabo Industries) supplemented with 2% fetal bovine serum, 10 μg/ml heparin, 1 μg/ml hydrocortisone, 10 ng/ml human recombinant […], and human recombinant basic fibroblast growth factor 3 ng/ml, at 37° C. in the presence of 5% CO2. After becoming confluent, the cells were sown to a 96-well microplate at 2.0×10^3 cells per well. The medium used at the time of cell sowing was a Medium 106S (Kurabo Industries, Ltd.) supplemented with 2% fetal bovine serum, 10 μg/ml heparin, and 1 μg/ml hydrocortisone. After cultivation for 24 hours, the test samples were replaced with the same medium added with the oxidized or reduced coenzyme Q10 such that the concentrations were to be 0.12 and 0.98 μg/ml, and the cells were further cultured for 48 hours. The same amount of HCO-60 alone was added to the medium, and the resulting solution was used as a control. The medium was then removed, and the microplate was washed with PBS (GIBCO), after which intracellular ATP contents were determined using an ATP assay kit (Perkin-Elmer) and compared.
For statistical analysis, a parametric multiple comparison (Tukey type) was performed. In comparison with the solvent-only control group, * indicates a significance level of less than 5%, and ** indicates a significance level of less than 1%. In comparison with oxidized coenzyme Q10, † indicates a significance level of less than 5%.

[4] = tested on: Normal human skin fibroblasts (NHDF); test: Suppressive effect on LDL-induced cell proliferation (BrdU incorporation ELISA); format: cell-based; details: LDL containing reduced coenzyme Q10 (2.44-78.2 μg/ml) vs LDL control sample = 100%; 48 hours
Description: Human LDL (BIODESIGN) and Medium 106S (Kurabo Industries, Ltd.), a basal medium for normal human skin fibroblasts, were mixed to prepare a LDL-containing medium. The reduced coenzyme Q10 obtained in Production Example 1 was dissolved into the LDL-containing medium at 50° C. with sonication. This was followed by membrane filtration, and the filtrate obtained was used as the test sample stock solution.
Likewise, the LDL-containing medium as is (without adding reduced coenzyme Q10) was subjected to membrane filtration and the filtrate obtained was used as the control sample stock solution. The LDL concentrations of the test sample stock solution and the control sample stock solution were same.
The concentration of reduced coenzyme Q10 in the test sample stock solution was measured by high performance liquid chromatography (column: length 25 cm, diameter 4.6 mm, YMC-PACK ODS-A (YMC), mobile phase: methanol-hexane (85:15, v/v), detection wavelength: 290 nm, flow rate: 1.0 mL/min). As a result, the weight percent of reduced coenzyme Q10 based on the total weight of coenzyme Q10 in the test sample stock solution was calculated to be 84.1% by weight, and the concentration of reduced coenzyme Q10 in the test sample stock solution was calculated to be 234.68 μg/ml. […]

[5] = tested on: aberrant crypt foci (ACF) in the rat large intestine; test: Rat colorectal carcinogenesis model (azoxymethane-initiated aberrant crypt foci); format: in vivo; details: four weeks; for Number of ACFs, 1 crypt, percent of control group / Number of ACFs, 2 crypts, percent of control group / Number of ACFs, 3 crypts, percent of control group / Number of ACFs, 4 crypts or more, percent of control group / Total ACF number/large intestine specimen, percent of control group / Total ACs number/large intestine specimen, percent of control group: control group = 100%; for Mean ACs number/focus / Number of ACFs formed in the large intestine, 1 crypt / Number of ACFs formed in the large intestine, 2 crypts / Number of ACFs formed in the large intestine, 3 crypts / Number of ACFs formed in the large intestine, 4 crypts or more / Total ACF number/large intestine specimen / Total ACs number/large intestine specimen: mean ± standard deviation
Description: To examine the effect of reduced coenzyme Q10 on carcinogenesis, a test was performed using a rat colorectal carcinogenesis model. This test method represents a rodent model of two-stage carcinogenesis, targeting the rat large intestine. Because carcinogenesis research using this test method is widely conducted for screening for cancer prophylactic agents and other purposes, the test results are sufficiently reliable.
Twenty-seven male F344 rats at 6 weeks of age were divided into three groups (9 animals/group) by computer-based randomized block design in a way such that no statistically significant difference would be produced in mean body weight. For initiation treatment for colorectal carcinogenesis, each rat was given azoxymethane (AOM) by subcutaneous administration at a dose of 15 mg/kg body weight once weekly for two weeks.
Starting on the day before administration of AOM, reduced coenzyme Q10 in solution in vehicle (olive oil) at a concentration of 20 or 50 mg/ml was given by gavage at doses of 0 (control group, group 1), 20, and 50 mg/kg (groups 2 and 3) on consecutive days for four weeks. The control group (group 1) received only the vehicle for administering reduced coenzyme Q10.
Four weeks after initial administration of reduced coenzyme Q10, all rats were autopsied, and the large intestine (colon and rectum, excluding the cecum) was extirpated. The large intestine with its ends ligated was fixed with injected 10% neutrally buffered formalin solution, after which the large intestine was incised and applied over filter paper flatly. Subsequently, the large intestine was post-fixed with 10% neutrally buffered formalin solution. After fixation, the large intestine was stained with 0.2% Methylene Blue solution in physiological saline for about 10 minutes, and the mucosal surface of the large intestine was examined using a stereomicroscope, whereby aberrant crypt foci (ACF), a form of precancerous lesion in colorectal cancer, were counted.
ACF was counted and classified by number of crypts present therein. Data were obtained as total ACF number per large intestine (colon and rectum) specimen, total crypt number per large intestine specimen, and mean crypt number per ACF (Table 2).
Furthermore, total ACF number per large intestine specimen was calculated according to the number of crypts in each ACF (Table 3).
For statistical analysis, Bartlett's homogeneity test was performed to compare group 1 and groups 2 and 3. […] In the case of non-homogenous dispersion, Dunnett's multiple comparison test based on a non-parametric approach (joint ranking method) was performed.

COC1=C(OC)C(=O)C(C/C=C(\C)CC/C=C(\C)CC/C=C(\C)CC/C=C(\C)CC/C=C(\C)CC/C=C(\C)CC/C=C(\C)CC/C=C(\C)CC/C=C(\C)CCC=C(C)C)=C(C)C1=O [Oxidized coenzyme Q10, oxidized coenzyme Q10, reference compound]
toxic signs [1]: no toxic signs were observed
intracellular ATP content compared with control group [2]: decreased significantly
ATP level ([3]; 0.12 μg/ml): 183.23 ± 62.70* nM
ATP level ([3]; 0.98 μg/ml): 224.84 ± 43.55* nM
intracellular ATP levels compared with solvent control [3]: significantly elevated

COc1c(O)c(C)c(C/C=C(\C)CC/C=C(\C)CC/C=C(\C)CC/C=C(\C)CC/C=C(\C)CC/C=C(\C)CC/C=C(\C)CC/C=C(\C)CC/C=C(\C)CCC=C(C)C)c(O)c1OC [Reduced coenzyme Q10, reduced coenzyme Q10]
elevation of cell division activity (BrdU incorporated in the nucleus) induced by LDL [4]: suppressed
Number of ACFs, 1 crypt, percent of control group ([5]; 20 mg/kg by gavage): (71)** %
Number of ACFs, 2 crypts, percent of control group ([5]; 20 mg/kg by gavage): (79) %
Number of ACFs, 3 crypts, percent of control group ([5]; 20 mg/kg by gavage): (100) %
Number of ACFs, 4 crypts or more, percent of control group ([5]; 20 mg/kg by gavage): (97) %
Total ACF number/large intestine specimen, percent of control group ([5]; 20 mg/kg by gavage): (80) %
Total ACs number/large intestine specimen, percent of control group ([5]; 20 mg/kg by gavage): (84) %
Mean ACs number/focus ([5]; 20 mg/kg by gavage): 1.77 ± 0.16
Number of ACFs formed in the large intestine, 1 crypt ([5]; 20 mg/kg by gavage): 47 ± 12
Number of ACFs formed in the large intestine, 2 crypts ([5]; 20 mg/kg by gavage): 39 ± 9
Number of ACFs formed in the large intestine, 3 crypts ([5]; 20 mg/kg by gavage): 18 ± 12
Number of ACFs formed in the large intestine, 4 crypts or more ([5]; 20 mg/kg by gavage): 7 ± 6
Total ACF number/large intestine specimen ([5]; 20 mg/kg by gavage): 113 ± 32
Total ACs number/large intestine specimen ([5]; 20 mg/kg by gavage): 214 ± 81
Number of ACFs, 1 crypt, percent of control group ([5]; 50 mg/kg by gavage): (61)*** %
Number of ACFs, 2 crypts, percent of control group ([5]; 50 mg/kg by gavage): (70)** %
Number of ACFs, 3 crypts, percent of control group ([5]; 50 mg/kg by gavage): (80) %
Number of ACFs, 4 crypts or more, percent of control group ([5]; 50 mg/kg by gavage): (78) %
Total ACF number/large intestine specimen, percent of control group ([5]; 50 mg/kg by gavage): (74)* %
Total ACs number/large intestine specimen, percent of control group ([5]; 50 mg/kg by gavage): (71)* %
Mean ACs number/focus ([5]; 50 mg/kg by gavage): 1.76 ± 0.33
Number of ACFs formed in the large intestine, 1 crypt ([5]; 50 mg/kg by gavage): 40 ± 10
Number of ACFs formed in the large intestine, 2 crypts ([5]; 50 mg/kg by gavage): 35 ± 11
Number of ACFs formed in the large intestine, 3 crypts ([5]; 50 mg/kg by gavage): 15 ± 7
Number of ACFs formed in the large intestine, 4 crypts or more ([5]; 50 mg/kg by gavage): 6 ± 4
Total ACF number/large intestine specimen ([5]; 50 mg/kg by gavage): 104 ± 26
Total ACs number/large intestine specimen ([5]; 50 mg/kg by gavage): 181 ± 54
gross condition, mortality, food consumption, and body weight during the treatment period ([5]; 20 and 50 mg/kg by gavage, male F344 rats): no changes associated with administration of the test substance were observed
total ACF number and total crypt number per large intestine specimen compared with the control group ([5]; 20 and 50 mg/kg by gavage, statistically significant in the 50 mg/kg group): decreased
total ACF number for 1-crypt ACF or 2-crypt ACF ([5]; 20 and 50 mg/kg by gavage, vs control group): decreased significantly
intracellular ATP content, reduced compared with oxidized coenzyme Q10 ([2]; 80 μg/ml each, P<0.05): significantly lower
intracellular ATP content compared with control group [2]: decreased significantly
ATP level ([3]; 0.12 μg/ml): 277.21 ± 46.02**† nM
ATP level ([3]; 0.98 μg/ml): 267.24 ± 20.72** nM
intracellular ATP levels compared with solvent control [3]: significantly elevated
intracellular ATP levels, reduced compared with oxidized coenzyme Q10 [3]: significantly elevated
